Test [1] deals with 5'-AMP-activated protein kinase catalytic subunit alpha-1 (Homo sapiens) (UniProt Q13131). Put plainly: Inhibition of AMPKa1 labeling at conserved Lys2 (DLKPENVLLDAHMNAK) in human PBMC at 1 uM.
Test [2] has as its target T1, Mitogen-activated protein kinase kinase kinase 5 (Homo sapiens) (UniProt Q99683).
T1 sequence (whole entry): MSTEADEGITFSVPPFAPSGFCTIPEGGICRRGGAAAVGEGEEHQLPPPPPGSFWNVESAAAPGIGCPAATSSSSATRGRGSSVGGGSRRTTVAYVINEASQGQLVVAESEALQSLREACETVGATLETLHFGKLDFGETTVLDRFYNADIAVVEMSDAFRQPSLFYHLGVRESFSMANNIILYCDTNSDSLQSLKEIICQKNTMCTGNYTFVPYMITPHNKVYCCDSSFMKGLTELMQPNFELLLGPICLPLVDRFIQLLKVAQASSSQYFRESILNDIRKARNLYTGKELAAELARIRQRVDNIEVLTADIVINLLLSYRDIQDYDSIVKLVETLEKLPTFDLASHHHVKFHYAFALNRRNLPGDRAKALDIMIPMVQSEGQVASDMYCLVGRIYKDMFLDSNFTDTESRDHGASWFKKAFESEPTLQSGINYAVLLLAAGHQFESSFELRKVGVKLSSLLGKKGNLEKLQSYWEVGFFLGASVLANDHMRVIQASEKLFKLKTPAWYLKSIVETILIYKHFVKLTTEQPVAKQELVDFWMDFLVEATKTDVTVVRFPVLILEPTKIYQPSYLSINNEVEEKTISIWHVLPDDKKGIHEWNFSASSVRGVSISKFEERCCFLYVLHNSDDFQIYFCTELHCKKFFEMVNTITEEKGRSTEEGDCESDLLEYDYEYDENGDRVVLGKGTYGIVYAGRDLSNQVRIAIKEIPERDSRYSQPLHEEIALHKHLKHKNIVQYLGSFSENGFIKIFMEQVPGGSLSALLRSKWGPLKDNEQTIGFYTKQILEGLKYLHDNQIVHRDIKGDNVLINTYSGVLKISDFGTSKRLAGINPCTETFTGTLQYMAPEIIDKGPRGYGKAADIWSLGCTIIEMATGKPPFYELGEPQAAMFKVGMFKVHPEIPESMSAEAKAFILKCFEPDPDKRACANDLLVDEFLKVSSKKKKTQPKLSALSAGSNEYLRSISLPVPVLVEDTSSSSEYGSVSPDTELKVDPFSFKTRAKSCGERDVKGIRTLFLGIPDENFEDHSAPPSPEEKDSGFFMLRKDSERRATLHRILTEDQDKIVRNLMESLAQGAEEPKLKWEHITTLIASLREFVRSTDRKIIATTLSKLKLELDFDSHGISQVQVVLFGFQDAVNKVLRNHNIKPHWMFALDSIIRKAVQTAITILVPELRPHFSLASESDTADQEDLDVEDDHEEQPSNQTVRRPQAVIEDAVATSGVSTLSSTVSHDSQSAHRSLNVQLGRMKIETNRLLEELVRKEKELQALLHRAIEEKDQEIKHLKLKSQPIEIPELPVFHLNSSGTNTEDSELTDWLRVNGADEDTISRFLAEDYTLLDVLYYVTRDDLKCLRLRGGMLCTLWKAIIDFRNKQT
Description: Inhibition of MAP3K5 conserved Lys1 (IAIKEIPER) in human PBMC at 1 uM.

Test [3] addresses RAC-alpha serine/threonine-protein kinase (Homo sapiens) (UniProt P31749). Description: Inhibition of AKT1 labeling at ATP binding site (GTFGKVILVK) in human PBMC at 0.1 uM.
Test [4] addresses Mitogen-activated protein kinase 14 (Homo sapiens) (UniProt Q16539). Description: Inhibition of p38a (QELNKTIWEVPER) in human PBMC at 0.1 uM.
Test [5] deals with Serine/threonine-protein kinase 26 (Homo sapiens) (UniProt Q9P289). Description: Inhibition of MST4 conserved Lys2 (DIKAANVLLSEQGDVK) in human PBMC at 0.1 uM.
In test [6] the target is MAP kinase-activated protein kinase 3 (Homo sapiens) (UniProt Q16644). Put plainly: Inhibition of MAPKAPK3 ATP binding site (QVLGLGVNGKVLECFHR) in human PBMC at 1 uM.
Test [7] deals with Dual specificity mitogen-activated protein kinase kinase 7 (Homo sapiens) (UniProt O14733). Put plainly: Inhibition of MAP2K7 conserved Lys2 (DVKPSNILLDER) in human PBMC at 1 uM.
The target in test [8] is T2, Serine/threonine-protein kinase ULK3 (Homo sapiens) (UniProt Q6PHR2).
T2 sequence (whole entry): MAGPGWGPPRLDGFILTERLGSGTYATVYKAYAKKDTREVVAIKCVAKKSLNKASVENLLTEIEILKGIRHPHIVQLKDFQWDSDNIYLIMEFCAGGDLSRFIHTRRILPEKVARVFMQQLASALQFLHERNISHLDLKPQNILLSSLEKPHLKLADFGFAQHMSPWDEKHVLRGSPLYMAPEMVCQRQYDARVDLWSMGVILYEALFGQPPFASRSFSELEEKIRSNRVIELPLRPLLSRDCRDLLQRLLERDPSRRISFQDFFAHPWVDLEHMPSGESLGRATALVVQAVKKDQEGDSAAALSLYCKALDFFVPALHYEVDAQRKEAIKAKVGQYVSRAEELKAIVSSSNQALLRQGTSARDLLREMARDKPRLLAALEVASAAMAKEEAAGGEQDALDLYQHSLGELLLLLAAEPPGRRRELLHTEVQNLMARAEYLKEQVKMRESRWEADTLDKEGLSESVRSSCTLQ
Description: Inhibition of ULK3 conserved Lys2 (NISHLDLKPQNILLSSLEKPHLK) in human PBMC at 0.1 uM.

For test [9], the target named is T2, Serine/threonine-protein kinase ULK3 (Homo sapiens). Description: Inhibition of ULK3 conserved Lys1 (EVVAIKCVAK) in human PBMC at 0.1 uM.
For test [10], the target named is T1, Mitogen-activated protein kinase kinase kinase 5 (Homo sapiens). Put plainly: Inhibition of MAP3K5 conserved Lys1 (IAIKEIPER) in human PBMC at 0.1 uM.

Sequence of Serine/threonine-protein kinase 26 (Homo sapiens) (Q9P289 2-416 limits assumed): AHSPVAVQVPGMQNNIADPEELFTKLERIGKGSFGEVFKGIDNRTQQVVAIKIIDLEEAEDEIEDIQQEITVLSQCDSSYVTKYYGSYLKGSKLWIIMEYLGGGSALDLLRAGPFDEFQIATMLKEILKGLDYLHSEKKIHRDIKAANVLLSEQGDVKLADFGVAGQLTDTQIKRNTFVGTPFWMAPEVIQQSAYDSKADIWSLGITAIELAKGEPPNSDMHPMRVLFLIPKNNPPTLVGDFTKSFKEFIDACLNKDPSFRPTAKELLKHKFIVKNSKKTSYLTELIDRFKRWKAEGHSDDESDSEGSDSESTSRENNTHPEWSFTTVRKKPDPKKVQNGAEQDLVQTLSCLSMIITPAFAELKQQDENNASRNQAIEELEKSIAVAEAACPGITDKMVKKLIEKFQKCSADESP
Sequence of Dual specificity mitogen-activated protein kinase kinase 7 (Homo sapiens) (O14733 whole entry): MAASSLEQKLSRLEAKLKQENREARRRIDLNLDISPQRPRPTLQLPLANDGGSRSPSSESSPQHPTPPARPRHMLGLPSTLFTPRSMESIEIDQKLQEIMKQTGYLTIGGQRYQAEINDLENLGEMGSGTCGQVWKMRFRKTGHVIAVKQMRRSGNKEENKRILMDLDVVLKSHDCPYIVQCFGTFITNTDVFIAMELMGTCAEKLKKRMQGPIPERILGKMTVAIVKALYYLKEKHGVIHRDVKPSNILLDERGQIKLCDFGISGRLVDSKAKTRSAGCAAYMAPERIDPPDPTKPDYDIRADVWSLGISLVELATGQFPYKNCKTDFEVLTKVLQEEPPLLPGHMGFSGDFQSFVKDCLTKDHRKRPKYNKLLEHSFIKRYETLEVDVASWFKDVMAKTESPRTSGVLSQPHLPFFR
Sequence of Mitogen-activated protein kinase 14 (Homo sapiens) (Q16539 whole entry): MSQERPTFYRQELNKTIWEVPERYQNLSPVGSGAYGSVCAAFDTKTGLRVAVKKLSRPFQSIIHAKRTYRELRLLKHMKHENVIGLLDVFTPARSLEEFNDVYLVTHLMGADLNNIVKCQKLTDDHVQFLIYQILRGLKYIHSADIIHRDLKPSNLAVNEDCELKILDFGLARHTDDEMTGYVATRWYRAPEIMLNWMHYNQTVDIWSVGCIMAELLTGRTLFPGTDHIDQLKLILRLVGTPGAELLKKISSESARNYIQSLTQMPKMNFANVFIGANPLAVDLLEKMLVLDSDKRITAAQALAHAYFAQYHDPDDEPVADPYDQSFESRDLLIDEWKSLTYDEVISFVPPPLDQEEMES
Sequence of RAC-alpha serine/threonine-protein kinase (Homo sapiens) (P31749 whole entry): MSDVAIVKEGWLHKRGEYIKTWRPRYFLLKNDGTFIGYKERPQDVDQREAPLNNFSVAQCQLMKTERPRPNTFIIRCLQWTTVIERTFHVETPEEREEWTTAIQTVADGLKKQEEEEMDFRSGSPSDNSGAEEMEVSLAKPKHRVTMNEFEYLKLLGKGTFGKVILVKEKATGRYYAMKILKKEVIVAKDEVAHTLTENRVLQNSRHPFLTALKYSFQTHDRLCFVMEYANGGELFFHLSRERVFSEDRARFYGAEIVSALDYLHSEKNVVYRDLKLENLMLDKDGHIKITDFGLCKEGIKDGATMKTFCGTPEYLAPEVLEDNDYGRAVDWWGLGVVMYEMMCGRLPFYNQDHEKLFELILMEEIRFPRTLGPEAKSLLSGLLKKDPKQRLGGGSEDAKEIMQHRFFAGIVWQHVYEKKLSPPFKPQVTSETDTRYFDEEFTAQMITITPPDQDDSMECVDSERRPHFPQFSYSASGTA
Sequence of MAP kinase-activated protein kinase 3 (Homo sapiens) (Q16644 whole entry, looked up): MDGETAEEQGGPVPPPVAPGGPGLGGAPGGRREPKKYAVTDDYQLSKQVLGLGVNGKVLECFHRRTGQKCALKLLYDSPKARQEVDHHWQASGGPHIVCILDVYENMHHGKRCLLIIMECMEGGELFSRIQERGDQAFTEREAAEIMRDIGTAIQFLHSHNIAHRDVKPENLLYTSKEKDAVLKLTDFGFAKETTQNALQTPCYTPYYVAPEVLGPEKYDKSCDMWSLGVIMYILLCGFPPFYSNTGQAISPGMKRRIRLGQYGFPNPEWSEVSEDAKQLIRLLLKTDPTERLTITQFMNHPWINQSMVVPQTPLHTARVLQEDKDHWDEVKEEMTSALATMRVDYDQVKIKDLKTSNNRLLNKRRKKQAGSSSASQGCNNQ
Sequence of 5'-AMP-activated protein kinase catalytic subunit alpha-1 (Homo sapiens) (Q13131 whole entry, looked up): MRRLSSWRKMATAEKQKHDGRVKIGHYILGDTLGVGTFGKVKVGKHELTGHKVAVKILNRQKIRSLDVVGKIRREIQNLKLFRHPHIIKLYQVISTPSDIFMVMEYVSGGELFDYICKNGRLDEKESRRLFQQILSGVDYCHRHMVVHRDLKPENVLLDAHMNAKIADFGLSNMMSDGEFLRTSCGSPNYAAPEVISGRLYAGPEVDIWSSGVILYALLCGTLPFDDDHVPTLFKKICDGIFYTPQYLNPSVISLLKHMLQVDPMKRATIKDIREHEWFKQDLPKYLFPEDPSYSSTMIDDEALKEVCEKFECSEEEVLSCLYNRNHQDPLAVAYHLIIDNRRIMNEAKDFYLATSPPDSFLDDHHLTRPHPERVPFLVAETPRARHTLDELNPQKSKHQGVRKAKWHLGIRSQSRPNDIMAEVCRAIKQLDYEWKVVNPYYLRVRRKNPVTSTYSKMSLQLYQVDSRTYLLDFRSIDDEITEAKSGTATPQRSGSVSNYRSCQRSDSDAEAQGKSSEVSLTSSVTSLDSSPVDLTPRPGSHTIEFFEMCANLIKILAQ

Regarding `CC(C)n1cc(-c2cc(-c3ccc(CN4CCOCC4)cc3)cnc2N)nn1`, the inhibition was 17.5% in test [1]; -3.3% in test [2]; 21% in [3]; 8.2% in test [4]; 0.5% in [5]; 2.5% in [6]. The inhibition was 18.6% in test [7], 27.2% in [8], 20.3% in [9] and -0.5% in test [10].

For the origin of these results see ChEMBL document CHEMBL4043168, “The design and SAR of a novel series of 2-aminopyridine based LRRK2 inhibitors” (Bioorg Med Chem Lett, 2017).
